Species: Rattus norvegicus
Assay: DrugMatrix - Regimen: Daily Repeat
Format: toxicity, organism-based, Sprague-Dawley
Parameters: regimen Daily Repeat, gender Male, age 6-8 weeks
Details: in vivo, po, route oral GAVAGE, vehicle 100 % WATER; for BASOPHIL / EOSINOPHIL / ERYTHROCYTE COUNT / HEMATOCRIT / HEMOGLOBIN / LEUKOCYTE COUNT / LYMPHOCYTE / MEAN CORPUSCULAR HEMOGLOBIN / MEAN CORPUSCULAR HEMOGLOBIN CONCENTRATION / MONOCYTE / NEUTROPHIL / PLATELET COUNT: tissue Blood; for ALANINE AMINOTRANSFERASE / ALBUMIN / ALKALINE PHOSPHATASE / ASPARTATE AMINOTRANSFERASE / BLOOD UREA NITROGEN / CHLORIDE / CHOLESTEROL / CREATINE PHOSPHOKINASE / CREATININE / GLUCOSE / PHOSPHORUS / POTASSIUM / SODIUM / TOTAL BILIRUBIN / TOTAL PROTEIN: tissue Plasma
[1] = 0 mg/kg, 72 h, dose level Control, time 3 day
[2] = 0 mg/kg, 120 h, dose level Control, time 5 day
[3] = 755 mg/kg, 72 h, dose level High, time 3 day
[4] = 755 mg/kg, 120 h, dose level High, time 5 day

CCN(CC)CCNC(=O)c1ccc(N)cc1 [PROCAINAMIDE] was tested, and the BASOPHIL [1] was 0%, the EOSINOPHIL [1] was 0.33% and the “ERYTHROCYTE COUNT” value [1] was 5.88 x10E6/uL. For the same molecule, the HEMATOCRIT [1] was 36.47%, the HEMOGLOBIN [1] was 14.2 G/DL and the “LEUKOCYTE COUNT” value [1] was 9.28 x10E3/uL. The LYMPHOCYTE [1] was 82.33%, the “MEAN CORPUSCULAR HEMOGLOBIN” value [1] was 24.2 pg and the “MEAN CORPUSCULAR HEMOGLOBIN CONCENTRATION” value [1] was 38.97 G/DL. The MONOCYTE [1] was 2.33%, the NEUTROPHIL [1] was 15% and the “PLATELET COUNT” value [1] was 1114 x10E3/uL. For the same molecule, the “ALANINE AMINOTRANSFERASE” value [1] was 41.17 u/L, the ALBUMIN [1] was 3.95 G/DL and the “ALKALINE PHOSPHATASE” value [1] was 382.5 u/L. The “ASPARTATE AMINOTRANSFERASE” value [1] was 67.33 u/L, the “BLOOD UREA NITROGEN” value [1] was 15.5 mg/dL and the CHLORIDE [1] was 106.33 MEQ/L. For the same molecule, the CHOLESTEROL [1] was 77.67 mg/dL, the “CREATINE PHOSPHOKINASE” value [1] was 123.33 u/L and the CREATININE [1] was 0.62 mg/dL. For the same molecule, the GLUCOSE [1] was 185.67 mg/dL, the PHOSPHORUS [1] was 10.2 mg/dL and the POTASSIUM [1] was 6.72 MEQ/L. For the same molecule, the SODIUM [1] was 149.67 MEQ/L, the “TOTAL BILIRUBIN” value [1] was 0.97 mg/dL and the “TOTAL PROTEIN” value [1] was 6.58 G/DL. The BASOPHIL [2] was 0%, the EOSINOPHIL [2] was 0% and the “ERYTHROCYTE COUNT” value [2] was 5.99 x10E6/uL. For the same molecule, the HEMATOCRIT [2] was 36.88%, the HEMOGLOBIN [2] was 14.77 G/DL and the “LEUKOCYTE COUNT” value [2] was 11.35 x10E3/uL. The LYMPHOCYTE [2] was 85.5%, the “MEAN CORPUSCULAR HEMOGLOBIN” value [2] was 24.7 pg and the “MEAN CORPUSCULAR HEMOGLOBIN CONCENTRATION” value [2] was 40.07 G/DL. For the same molecule, the MONOCYTE [2] was 1.83%, the NEUTROPHIL [2] was 12.67% and the “PLATELET COUNT” value [2] was 979.67 x10E3/uL. The “ALANINE AMINOTRANSFERASE” value [2] was 36.5 u/L, the ALBUMIN [2] was 3.63 G/DL and the “ALKALINE PHOSPHATASE” value [2] was 303.5 u/L. The “ASPARTATE AMINOTRANSFERASE” value [2] was 61 u/L, the “BLOOD UREA NITROGEN” value [2] was 16.5 mg/dL and the CHLORIDE [2] was 106.17 MEQ/L. For the same molecule, the “CREATINE PHOSPHOKINASE” value [2] was 154.83 u/L, the CREATININE [2] was 0.6 mg/dL and the GLUCOSE [2] was 201 mg/dL. For the same molecule, the PHOSPHORUS [2] was 10.1 mg/dL, the POTASSIUM [2] was 6.85 MEQ/L and the SODIUM [2] was 148.17 MEQ/L. The “TOTAL BILIRUBIN” value [2] was 0.58 mg/dL, the “TOTAL PROTEIN” value [2] was 5.9 G/DL and the BASOPHIL [3] was 0%. For the same molecule, the EOSINOPHIL [3] was 0%, the “ERYTHROCYTE COUNT” value [3] was 5.39 x10E6/uL and the HEMATOCRIT [3] was 32.67%. For the same molecule, the HEMOGLOBIN [3] was 13.03 G/DL, the “LEUKOCYTE COUNT” value [3] was 10.2 x10E3/uL and the LYMPHOCYTE [3] was 85.67%. The “MEAN CORPUSCULAR HEMOGLOBIN” value [3] was 24.17 pg, the “MEAN CORPUSCULAR HEMOGLOBIN CONCENTRATION” value [3] was 39.9 G/DL and the MONOCYTE [3] was 1.33%. The NEUTROPHIL [3] was 13%, the “PLATELET COUNT” value [3] was 1063.33 x10E3/uL and the “ALANINE AMINOTRANSFERASE” value [3] was 43 u/L. For the same molecule, the ALBUMIN [3] was 3.9 G/DL, the “ALKALINE PHOSPHATASE” value [3] was 441.33 u/L and the “ASPARTATE AMINOTRANSFERASE” value [3] was 61 u/L. The “BLOOD UREA NITROGEN” value [3] was 16 mg/dL, the CHLORIDE [3] was 105.33 MEQ/L and the CHOLESTEROL [3] was 74.33 mg/dL. For the same molecule, the “CREATINE PHOSPHOKINASE” value [3] was 142.67 u/L, the CREATININE [3] was 0.57 mg/dL and the GLUCOSE [3] was 176.33 mg/dL. The PHOSPHORUS [3] was 11.97 mg/dL, the POTASSIUM [3] was 6.97 MEQ/L and the SODIUM [3] was 150.67 MEQ/L. For the same molecule, the “TOTAL BILIRUBIN” value [3] was 0.6 mg/dL, the “TOTAL PROTEIN” value [3] was 6.5 G/DL and the BASOPHIL [4] was 0%. For the same molecule, the EOSINOPHIL [4] was 0%, the “ERYTHROCYTE COUNT” value [4] was 5.45 x10E6/uL and the HEMATOCRIT [4] was 33.47%. The HEMOGLOBIN [4] was 14.6 G/DL, the “LEUKOCYTE COUNT” value [4] was 13.8 x10E3/uL and the LYMPHOCYTE [4] was 87.67%. The “MEAN CORPUSCULAR HEMOGLOBIN” value [4] was 26.87 pg, the “MEAN CORPUSCULAR HEMOGLOBIN CONCENTRATION” value [4] was 43.7 G/DL and the MONOCYTE [4] was 1.33%. For the same molecule, the NEUTROPHIL [4] was 11%, the “PLATELET COUNT” value [4] was 830.33 x10E3/uL and the “ALANINE AMINOTRANSFERASE” value [4] was 40.67 u/L. The ALBUMIN [4] was 3.73 G/DL, the “ALKALINE PHOSPHATASE” value [4] was 378.67 u/L and the “ASPARTATE AMINOTRANSFERASE” value [4] was 63 u/L. For the same molecule, the “BLOOD UREA NITROGEN” value [4] was 14.33 mg/dL, the CHLORIDE [4] was 107.33 MEQ/L and the CHOLESTEROL [4] was 74 mg/dL. The “CREATINE PHOSPHOKINASE” value [4] was 117.33 u/L, the CREATININE [4] was 0.67 mg/dL and the GLUCOSE [4] was 180 mg/dL. It also gave a PHOSPHORUS [4] of 10.5 mg/dL, a POTASSIUM [4] of 6.57 MEQ/L and an SODIUM [4] of 152.33 MEQ/L. For the same molecule, the “TOTAL BILIRUBIN” value [4] was 0.53 mg/dL and the “TOTAL PROTEIN” value [4] was 6.03 G/DL.

From ChEMBL document CHEMBL3885881, “DrugMatrix”
